# Species: Rattus norvegicus
# Assay: DrugMatrix - Regimen: Daily Repeat
# Assay type: toxicity, organism-based, Sprague-Dawley
# Design: regimen Daily Repeat, gender Male, age 6-8 weeks
# Conditions: in vivo, po, 500 mg/kg, route oral GAVAGE, dose level High, vehicle .5 % CMC; for ABSOLUTE BASOPHIL / ABSOLUTE EOSINOPHIL / ABSOLUTE LYMPHOCYTE / ABSOLUTE MONOCYTE / ABSOLUTE SEGMENTED NEUTROPHIL / BASOPHIL / EOSINOPHIL / ERYTHROCYTE COUNT / HEMATOCRIT / HEMOGLOBIN / LEUKOCYTE COUNT / LYMPHOCYTE / MEAN CORPUSCULAR HEMOGLOBIN / MEAN CORPUSCULAR HEMOGLOBIN CONCENTRATION / MEAN CORPUSCULAR VOLUME / MONOCYTE / NEUTROPHIL / NUCLEATED RED BLOOD CELLS / PLATELET COUNT: tissue Blood
# [1] = 72 h, tissue Plasma, time 3 day
# [2] = 120 h, tissue Plasma, time 5 day
smiles,measurement,setting,value
Clc1ccccc1 [CHLOROBENZENE],ABSOLUTE BASOPHIL,"72 h, time 3 day",0 CELLS/uL
same,ABSOLUTE EOSINOPHIL,"72 h, time 3 day",274.33 CELLS/uL
same,ABSOLUTE LYMPHOCYTE,"72 h, time 3 day",9310 CELLS/uL
same,ABSOLUTE MONOCYTE,"72 h, time 3 day",211.33 CELLS/uL
same,ABSOLUTE SEGMENTED NEUTROPHIL,"72 h, time 3 day",771 CELLS/uL
same,BASOPHIL,"72 h, time 3 day",0%
same,EOSINOPHIL,"72 h, time 3 day",2.33%
same,ERYTHROCYTE COUNT,"72 h, time 3 day",6.63 x10E6/uL
same,HEMATOCRIT,"72 h, time 3 day",39.23%
same,HEMOGLOBIN,"72 h, time 3 day",14.07 G/DL
same,LEUKOCYTE COUNT,"72 h, time 3 day",10.57 x10E3/uL
same,LYMPHOCYTE,"72 h, time 3 day",88.33%
same,MEAN CORPUSCULAR HEMOGLOBIN,"72 h, time 3 day",21.2 pg
same,MEAN CORPUSCULAR HEMOGLOBIN CONCENTRATION,"72 h, time 3 day",35.9 G/DL
same,MEAN CORPUSCULAR VOLUME,"72 h, time 3 day",59.17 fL
same,MONOCYTE,"72 h, time 3 day",2%
same,NEUTROPHIL,"72 h, time 3 day",7.33%
same,NUCLEATED RED BLOOD CELLS,"72 h, time 3 day",0 /100WBC
same,PLATELET COUNT,"72 h, time 3 day",768.67 x10E3/uL
same,ALANINE AMINOTRANSFERASE,[1],64 u/L
same,ALBUMIN,[1],4.1 G/DL
same,ALKALINE PHOSPHATASE,[1],361.67 u/L
same,ASPARTATE AMINOTRANSFERASE,[1],100.33 u/L
same,BLOOD UREA NITROGEN,[1],17.67 mg/dL
same,CARBON DIOXIDE,[1],26.33 mmol/L
same,CHLORIDE,[1],103.33 MEQ/L
same,CHOLESTEROL,[1],86.67 mg/dL
same,CREATININE,[1],0.21 mg/dL
same,GLUCOSE,[1],184.33 mg/dL
same,LACTATE DEHYDROGENASE,[1],325.33 u/L
same,LIPASE,[1],9.67 u/L
same,PHOSPHORUS,[1],14.17 mg/dL
same,POTASSIUM,[1],5.77 MEQ/L
same,SODIUM,[1],147.63 MEQ/L
same,TOTAL BILIRUBIN,[1],0.17 mg/dL
same,TOTAL PROTEIN,[1],5.83 G/DL
same,URIC ACID,[1],2.13 mg/dL
same,ABSOLUTE BASOPHIL,"120 h, time 5 day",0 CELLS/uL
same,ABSOLUTE EOSINOPHIL,"120 h, time 5 day",83.67 CELLS/uL
same,ABSOLUTE LYMPHOCYTE,"120 h, time 5 day",5790.33 CELLS/uL
same,ABSOLUTE MONOCYTE,"120 h, time 5 day",83 CELLS/uL
same,ABSOLUTE SEGMENTED NEUTROPHIL,"120 h, time 5 day",376.33 CELLS/uL
same,BASOPHIL,"120 h, time 5 day",0%
same,EOSINOPHIL,"120 h, time 5 day",1.33%
same,ERYTHROCYTE COUNT,"120 h, time 5 day",6.34 x10E6/uL
same,HEMATOCRIT,"120 h, time 5 day",37.73%
same,HEMOGLOBIN,"120 h, time 5 day",13.57 G/DL
same,LEUKOCYTE COUNT,"120 h, time 5 day",6.33 x10E3/uL
same,LYMPHOCYTE,"120 h, time 5 day",91.33%
same,MEAN CORPUSCULAR HEMOGLOBIN,"120 h, time 5 day",21.37 pg
same,MEAN CORPUSCULAR HEMOGLOBIN CONCENTRATION,"120 h, time 5 day",35.9 G/DL
same,MEAN CORPUSCULAR VOLUME,"120 h, time 5 day",59.6 fL
same,MONOCYTE,"120 h, time 5 day",1.33%
same,NEUTROPHIL,"120 h, time 5 day",6%
same,NUCLEATED RED BLOOD CELLS,"120 h, time 5 day",0 /100WBC
same,PLATELET COUNT,"120 h, time 5 day",998.67 x10E3/uL
same,ALANINE AMINOTRANSFERASE,[2],58 u/L
same,ALBUMIN,[2],4.13 G/DL
same,ALKALINE PHOSPHATASE,[2],325 u/L
same,ASPARTATE AMINOTRANSFERASE,[2],91 u/L
same,BLOOD UREA NITROGEN,[2],16 mg/dL
same,CARBON DIOXIDE,[2],31.67 mmol/L
same,CHLORIDE,[2],102.67 MEQ/L
same,CHOLESTEROL,[2],68 mg/dL
same,CREATININE,[2],0.19 mg/dL
same,GLUCOSE,[2],160.67 mg/dL
same,LACTATE DEHYDROGENASE,[2],181.33 u/L
same,LIPASE,[2],9.33 u/L
same,PHOSPHORUS,[2],11.9 mg/dL
same,POTASSIUM,[2],5.74 MEQ/L
same,SODIUM,[2],150.1 MEQ/L
same,TOTAL BILIRUBIN,[2],0.2 mg/dL
same,TOTAL PROTEIN,[2],6.07 G/DL

# Source: ChEMBL document CHEMBL3885881, “DrugMatrix”
